The source of these data is publication PMC5501787, “Heliosterpenoids A and B, two Novel Jatrophane-Derived Diterpenoids with a 5/6/4/6 Ring System from Euphorbia helioscopia” (Scientific Reports, 2017).

This experiment has as its target P-glycoprotein (ABCB1) (Homo sapiens, UniProt P08183). The experiment can be described thus: inhibition of P-gp-mediated adriamycin efflux in MCF-7/ADR cells. The experiment is classed as cell-based.

Sequence of P-glycoprotein (ABCB1) (P08183 whole entry): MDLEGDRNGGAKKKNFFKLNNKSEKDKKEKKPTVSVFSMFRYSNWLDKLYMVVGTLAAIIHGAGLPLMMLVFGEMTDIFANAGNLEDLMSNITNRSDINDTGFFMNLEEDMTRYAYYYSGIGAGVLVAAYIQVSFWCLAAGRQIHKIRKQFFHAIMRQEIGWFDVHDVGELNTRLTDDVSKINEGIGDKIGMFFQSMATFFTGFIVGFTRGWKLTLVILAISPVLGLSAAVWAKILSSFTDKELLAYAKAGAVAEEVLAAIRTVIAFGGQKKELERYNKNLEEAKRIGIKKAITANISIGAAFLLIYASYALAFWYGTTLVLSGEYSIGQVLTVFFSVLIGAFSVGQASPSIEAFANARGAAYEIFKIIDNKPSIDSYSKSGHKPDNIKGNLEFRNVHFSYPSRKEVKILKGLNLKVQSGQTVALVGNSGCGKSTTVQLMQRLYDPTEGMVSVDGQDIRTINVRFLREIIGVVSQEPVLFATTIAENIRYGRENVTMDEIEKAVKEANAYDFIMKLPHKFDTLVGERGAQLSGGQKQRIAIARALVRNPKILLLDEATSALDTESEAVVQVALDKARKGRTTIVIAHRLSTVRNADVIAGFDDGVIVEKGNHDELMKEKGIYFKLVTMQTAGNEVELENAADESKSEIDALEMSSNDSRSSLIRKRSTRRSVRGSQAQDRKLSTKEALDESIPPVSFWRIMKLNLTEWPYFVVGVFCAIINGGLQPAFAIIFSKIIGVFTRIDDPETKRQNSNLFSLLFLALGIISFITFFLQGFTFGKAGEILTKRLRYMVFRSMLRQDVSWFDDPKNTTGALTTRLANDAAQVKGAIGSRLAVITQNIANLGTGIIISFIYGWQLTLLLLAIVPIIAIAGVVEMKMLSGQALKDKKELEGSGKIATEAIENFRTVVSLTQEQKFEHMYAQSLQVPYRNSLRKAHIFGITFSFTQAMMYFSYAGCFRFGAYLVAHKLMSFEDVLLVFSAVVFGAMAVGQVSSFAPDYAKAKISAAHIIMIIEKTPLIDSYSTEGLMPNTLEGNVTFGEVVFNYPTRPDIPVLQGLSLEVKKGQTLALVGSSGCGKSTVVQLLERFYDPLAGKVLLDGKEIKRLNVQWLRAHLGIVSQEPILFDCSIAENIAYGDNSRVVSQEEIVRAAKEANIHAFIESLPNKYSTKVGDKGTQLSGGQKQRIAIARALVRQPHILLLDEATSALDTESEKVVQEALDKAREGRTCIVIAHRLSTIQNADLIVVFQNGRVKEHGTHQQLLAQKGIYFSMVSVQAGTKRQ

For orientation: IC50 means the concentration needed to halve the response being measured. Read a low IC50 as greater potency in that assay. Consider `CC(=O)O[C@@H]1[C@@H](C)[C@H]2[C@@H]([C@H]3[C@@H](OC(=O)c4ccccc4)[C@H](C)C[C@@]31OC(C)=O)[C@]1(C)C=CC(=O)C(C)(C)[C@H]21` [compound 1, Heliosterpenoid A], for which 1280 nM corresponded to half-maximal inhibition (IC50). The same measure for `CC(=O)O[C@H]1[C@@H](C)[C@H]2[C@@H]([C@H]3[C@@H](OC(=O)c4ccccc4)[C@@H](C)C[C@@]31O)[C@]1(C)C(=O)C=CC(C)(C)[C@H]21` [compound 2, Heliosterpenoid B]: 1020 nM.
